# Where two headings read alike, the source gives them in different places.
# Assays:
# [1] = system: YAP-TEAD transcription complex; assay: YAP-TEAD reporter gene assay (dual luciferase, stably transfected 293T cells); format: cell-based; details: Homo sapiens, HEK-293T; 293T reporter cells, 24 h of drug treatment; read-out: IC50
# Protocol: YAP-TEAD reporter gene The YAP-TEAD reporter gene assay was performed as follows. Firstly, the 8xGTIIC promoter sequence ([…] GTACTGTTGGTAAA) was constructed into a pGL4.20(luc2-Puro) plasmid, and the TK promoter ([…]) unrelated to the hippo pathway was constructed into a pGL4.78(hRlucCP/Hygro) plasmid, thereby constructing stably transfected 293T cells that can stably and continuously express the transcriptional activity of the YAP-TEAD transcription complex. After selection and identification of individual clones, the clones were grown and maintained in a DMEM medium containing 10% fetal bovine serum, penicillin-streptomycin solution, 1 µg/mL puromycin, and 150 µg/mL hygromycin. To perform reporter gene assays with the compounds to be tested, the well-growing cells described above were plated in a 384-well plate at a cell density of 3000 cells per well, with 90 µL per well. The periphery was sealed with an appropriate amount of PBS to prevent evaporation of water from the peripheral wells. Administration was performed on the next day after the cell plating. The test compounds were added at different concentration gradients, and three replicate wells were set for each concentration point. The compound concentration started at 5 µM and was diluted seven times with a 5-fold gradient. A corresponding negative control group treated with DMSO was also set up. After 24 h of drug treatment, the detection reagents were prepared first. The Dual-Lumi™ Firefly luciferase detection reagent and Dual-Lumi™ Renilla luciferase detection buffer were dissolved and brought to room temperature. […]. According to the amount of 100 µL of Dual-Lumi™ Renilla luciferase detection working solution required for the detection of each sample, an appropriate amount of Dual-Lumi™ Renilla luciferase detection working solution was prepared. […]. The cell culture plate was taken out and allowed to equilibrate at room temperature for 10 min (usually no more than 30 min). Then, 100 µL of Dual-Lumi™ Firefly luciferase detection reagent was added to each well of a 96-well plate (25 µL per well for the 384-well plate), and the mixture was mixed well. The mixture was then incubated at room temperature (about 25 °C) for 10 min to stabilize the luminescent signal, and then chemiluminescence was detected using a multimode microplate reader with a chemiluminescence detection function. Subsequently, the detection of Renilla luciferase began. Firstly, 100 µL of Dual-Lumi™ Renilla luciferase detection working solution was added to each well of a […] (25 µL per well for the 384-well plate), and the mixture was mixed well. The mixture was then incubated at room temperature (about 25 °C) for 10 min to stabilize the luminescent signal. Finally, chemiluminescence was detected using a multimode microplate reader with a chemiluminescence detection function. The obtained data were analyzed using GraphPad Prism 7.0 software. A sigmoidal dose-survival rate curve was plotted using a non-linear regression model, and the IC50 values were calculated.
# [2] = system: NCI-H2452 (NF2 wide-type); assay: Inhibition of cell proliferation (CellTiter-Lumi); format: cell-based; details: Homo sapiens, 72 h + another 72 h treatment
# Protocol: (§1) NCI-H2052 (NF2 mutant), NCI-H226 (NF2 mutant), NCI-H2452 (NF2 wide-type), NCI-H28 (NF2 wide-type), and MSTO-211H (NF2 wide-type) cells were cultured in RPMI 1640 complete media.
# (§2) The normally growing cells described above were digested with a trypsin cell-digesting solution, centrifuged, counted, and then plated in a 96-well plate at a density of 1000 cells per well. Administration was performed 24 h after the cell plating. Inhibitors at different concentration gradients were added at 10 µL per well, and three replicate wells were set for each concentration point. The starting concentration was 20 µM and diluted 8 times with a 4-fold gradient. A corresponding negative control group treated with 0.1% DMSO was also set up. After 72 h of drug treatment, the cell culture plate to be tested was taken out of the incubator. The culture medium in the 96-well plate was pipetted, and 190 µL of fresh RPMI 1640 complete medium was added. Another administration was performed, and the cells were cultured for another 72 h. The 96-well plate was taken out and allowed to equilibrate at room temperature for 10 min. […] After shaking for two minutes, the mixture was reacted at room temperature for 10 min. Then, 150 µL of liquid was pipetted from the transparent 96-well plate and transferred to a white 96-well plate for chemiluminescence reading. The background value was subtracted from the value for each well to calculate the cell survival rate. Survival rate (%) = […]. Sample is the chemiluminescence of the drug-treated group, and Vehicle is the […] of the DMSO control group. A sigmoidal dose-survival rate curve was plotted using a non-linear regression model in the GraphPad Prism 7.0 software, and the IC50 values or GI50 values were calculated.
# NCI-H28 (NF2 wide-type) = assay: Inhibition of cell proliferation (CellTiter-Lumi); format: cell-based; details: Homo sapiens, 72 h + another 72 h treatment
# Protocol: as §1, §2
# [3] = system: MSTO-211H (NF2 wide-type); assay: Inhibition of cell proliferation (CellTiter-Lumi); format: cell-based; details: Homo sapiens, 72 h + another 72 h treatment
# Protocol: as §1
# The normally growing cells described above were digested with a trypsin cell-digesting solution, centrifuged, counted, and then plated in a 96-well plate at a density of 1000 cells per well. Administration was performed 24 h after the cell plating. Inhibitors at different concentration gradients were added at 10 µL per well, and three replicate wells were set for each concentration point. The starting concentration was 20 µM and diluted 8 times with a 4-fold gradient. A corresponding negative control group treated with 0.1% DMSO was also set up. After 72 h of drug treatment, the cell culture plate to be tested was taken out of the incubator. The culture medium in the 96-well plate was pipetted, and 190 µL of fresh RPMI 1640 complete medium was added. Another administration was performed, and the cells were cultured for another 72 h. The 96-well plate was taken out and allowed to equilibrate at room temperature for 10 min. The medium in the 96-well plate was pipetted, and 200 µL of CellTiter-Lumi™ luminescent cell viability detection solution (mixed with a medium in a ratio of 1:1) was added. After shaking for two minutes, the mixture was reacted at room temperature for 10 min. Then, 150 µL of liquid was pipetted from the transparent 96-well plate and transferred to a white 96-well plate for chemiluminescence reading. The background value was subtracted from the value for each well to calculate the cell survival rate. Survival rate (%) = […]. Sample is the chemiluminescence of the drug-treated group, and Vehicle is the […] of the DMSO control group. A sigmoidal dose-survival rate curve was plotted using a non-linear regression model in the GraphPad Prism 7.0 software, and the IC50 values or GI50 values were calculated.
# [4] = Pharmacokinetic test in mice (low dose); format: in vivo, Balb/c mice; details: mouse, plasma, mice; for AUC(0-t): read-out: AUClast; for half-life: read-out: T1/2 (converted)
# Protocol: The compounds of the present disclosure were administered to Balb/c mice by single intravenous injection and oral gavage, and the plasma of the mice at each time point was collected. The concentration of the compounds to be tested in BALB/C plasma was detected using the LC-MS/MS analysis method, and pharmacokinetic analysis was performed.
# The mixture was vortexed, shaken, and ultrasonicated. The remaining volume of 25% sulfobutylether-β-cyclodextrin (sterilized) was added to prepare the final concentration solution or suspension.
# Intravenous injection formulations will be directly administered in animal experiments without filtration. The IV drug preparation vials were disinfected in an infrared sterilization cabinet one day in advance.
# Intravenous injection: Administration was performed via the tail vein. After the needle was inserted, the syringe was slowly […].
# Gavage: Gavage needle and syringe of an appropriate type were selected. The gavage needle was inserted from the root of the tongue into the esophagus until it reached near the cardia of the stomach, then the drug formulation was injected, and the gavage needle was withdrawn. When disposable plastic gavage needles were used, one needle was used for each group.
# At each time point, 60 µL of whole blood was collected from the submandibular vein or tail vein (except for the IV group). The blood sample was added to a pre-cooled anticoagulant blood collection tube containing anticoagulant EDTA-K2 (1 µL, 15% EDTA-K2 solution), placed on wet ice, and centrifuged (3000 g, 4 °C, 10 min) within 1 h. The plasma was immediately collected after centrifugation, transferred to an EP tube, and stored at -90 °C to -60 °C.
# Plasma concentration detection: A developed LC-MS/MS method was used to detect the compounds in plasma.
# The plasma concentration-time data were analyzed using a non-compartmental model in the Phoenix® WinNonlin® (Version 8.2, Pharsight, Mountain View, CA).
smiles,measurement,setting,value
CP(C)(=O)c1ccc2c(c1)c1ncccc1n2-c1ccc(C(F)(F)F)cc1 [Example 4],IC50,[1],123 nM
same,IC50,[2],> 5000 nM
same,IC50,NCI-H28 (NF2 wide-type),> 1250 nM
same,IC50,[3],> 1250 nM
same,MRT,[4]; IV 2 mg/kg,6.4 h
same,AUC(0-t),[4]; IV 2 mg/kg,9.23 µM·h
same,clearance,"[4]; IV 2 mg/kg, read-out: Cl (converted)",8.33 mL/min/kg
same,half-life,[4]; IV 2 mg/kg,6.3 h
same,MRT,[4]; PO 10 mg/kg,5.3 h
same,bioavailability,"[4]; PO 10 mg/kg vs IV 2 mg/kg, read-out: F%",163%
same,AUC(0-t),[4]; PO 10 mg/kg,79 µM·h
same,Cmax,"[4]; PO 10 mg/kg, read-out: Cmax",9.36 µM
same,half-life,[4]; PO 10 mg/kg,3.3 h
